Measured values: article PMC6204823, “Synthesis of 3-aminocoumarin-N-benzylpyridinium conjugates with nanomolar inhibitory activity against acetylcholinesterase” (Beilstein Journal of Organic Chemistry, 2018)

Molecular target: T1, Electrophorus electricus AChE (Electrophorus electricus, UniProt O42275)
T1 construct: purchased Sigma-Aldrich, USA Type VI-S
Experiment: biochemical
Conditions: not given
Protocol: The AChE inhibitory activity of the synthesized compounds was evaluated by Ellman’s method using Electrophorus electricus AChE; donepezil hydrochloride and tacrine were used as the reference compounds.
AChE (Electrophorus electricus, Type VI-S, lyophilized powder) was purchased from Sigma-Aldrich, USA. Acetylthiocholine, 5,5′-dithiobis(2-nitrobenzoic acid), sodium dihydrogen phosphate, disodium hydrogen phosphate, and sodium hydrogen carbonate were obtained from Fluka, Switzerland. AChE inhibitory activity was […]
USA) based on Ellman’s method with slight modifications. For each assay, 200 μL of the assay medium containing 100 μL of 0.1 M phosphate buffer (pH 8), 20 μL of 3.3 mM 5,5′-dithiobis(2-nitrobenzoic acid) in 0.1 M phosphate buffer (pH 7) containing 6 mM NaHCO3, 20 μL of the test compounds at different concentrations in methanol, and 40 μL of 0.15 unit/mL AChE in phosphate buffer (pH 8) were incubated at 37 °C for 20 min. Subsequently, 20 μL of 5 mM acetylthiocholine iodide in water was added, and the absorbance was measured at 412 nm every 20 s for 3 min. The rate of each reaction was calculated by Microplate Manager software.
The blank percentage of inhibition of the tested compounds was determined by comparing the rate of the sample to the blank. The IC50 value was determined by nonlinear regression of the log inhibitor concentration versus the percentage of inhibition using GraphPad Prism6. Donepezil hydrochloride and tacrine were applied as the reference compounds. All samples were assayed in triplicate.

T1 sequence (O42275 24-633): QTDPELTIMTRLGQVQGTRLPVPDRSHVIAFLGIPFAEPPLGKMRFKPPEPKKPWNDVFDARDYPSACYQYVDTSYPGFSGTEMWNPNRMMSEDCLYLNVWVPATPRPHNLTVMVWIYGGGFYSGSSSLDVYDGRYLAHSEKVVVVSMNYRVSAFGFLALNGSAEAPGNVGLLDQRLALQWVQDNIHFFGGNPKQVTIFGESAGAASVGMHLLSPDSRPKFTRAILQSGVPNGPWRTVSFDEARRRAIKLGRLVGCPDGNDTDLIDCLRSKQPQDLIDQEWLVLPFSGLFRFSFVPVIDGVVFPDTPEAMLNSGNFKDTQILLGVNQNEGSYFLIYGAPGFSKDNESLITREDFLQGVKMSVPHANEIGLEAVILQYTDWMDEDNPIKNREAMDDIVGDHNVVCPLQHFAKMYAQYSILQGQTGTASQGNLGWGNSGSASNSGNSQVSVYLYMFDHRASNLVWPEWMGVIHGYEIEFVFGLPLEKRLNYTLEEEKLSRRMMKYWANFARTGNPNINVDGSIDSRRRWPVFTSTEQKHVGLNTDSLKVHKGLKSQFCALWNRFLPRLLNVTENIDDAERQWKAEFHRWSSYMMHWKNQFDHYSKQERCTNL

SMILES | fold lower IC50 than donepezil hydrochloride [fold] | fold lower IC50 than tacrine [fold]
COc1cc2cc(NC(=O)c3cc[n+](Cc4cccc(F)c4F)cc3)c(=O)oc2cc1OC.[Br-] [compound 9h] | 35 | 124

Same assay, conditions: concentration producing 50% inhibition of enzyme activity; triplicate independent experiments

SMILES | IC50 [nM]
O=C(Nc1cc2ccccc2oc1=O)c1cc[n+](Cc2ccccc2)cc1 [compound 4a] | 71.9 ± 3.4
COc1cc2cc(NC(=O)c3cc[n+](Cc4ccccc4)cc3)c(=O)oc2cc1OC [compound 9a] | 12.5 ± 0.71
COc1cc2cc(NC(=O)c3cc[n+](Cc4ccccc4Cl)cc3)c(=O)oc2cc1OC [compound 9b] | 6.03 ± 0.18
COc1cc2cc(NC(=O)c3cc[n+](Cc4cccc(Cl)c4)cc3)c(=O)oc2cc1OC [compound 9c] | 11.5 ± 0.63
COc1cc2cc(NC(=O)c3cc[n+](Cc4ccc(Cl)cc4)cc3)c(=O)oc2cc1OC [compound 9d] | 293 ± 13.6
COc1cc2cc(NC(=O)c3cc[n+](Cc4ccccc4F)cc3)c(=O)oc2cc1OC [compound 9e] | 3.05 ± 0.28
COc1cc2cc(NC(=O)c3cc[n+](Cc4cccc(F)c4)cc3)c(=O)oc2cc1OC [compound 9f] | 5.04 ± 0.26
COc1cc2cc(NC(=O)c3cc[n+](Cc4ccc(F)cc4)cc3)c(=O)oc2cc1OC [compound 9g] | 5.31 ± 0.38
COc1cc2cc(NC(=O)c3cc[n+](Cc4cccc(F)c4F)cc3)c(=O)oc2cc1OC.[Br-] [compound 9h] | 1.53 ± 0.01
COc1cc2cc(NC(=O)c3cc[n+](Cc4c(F)cccc4F)cc3)c(=O)oc2cc1OC [compound 9i] | 2.43 ± 0.18
COc1cc2cc(NC(=O)Cc3cc[n+](Cc4ccccc4)cc3)c(=O)oc2cc1OC [compound 10a] | 1087.7 ± 0.05

Same assay, conditions: read-out: % Inhibition at concentration of 1 μM, 1 μM

SMILES | inhibition at 1 µM [%]
Nc1cc2ccccc2oc1=O [compound 3, 3-aminocoumarin] | 12
O=C(Cc1ccncc1)Nc1cc2ccccc2oc1=O [compound 5] | < 10
O=C(Cc1cc[n+](Cc2ccccc2)cc1)Nc1cc2ccccc2oc1=O [compound 5a] | 10
COc1cc2cc(N)c(=O)oc2cc1OC [compound 8] | 5
COc1cc2cc(NC(=O)c3ccncc3)c(=O)oc2cc1OC [compound 9] | < 10
COc1cc2cc(NC(=O)Cc3ccncc3)c(=O)oc2cc1OC [compound 10] | < 10

System: not listed separately
Experiment: Cytotoxicity against MRC-5 normal embryonic lung cell
Assay type: cell-based
Conditions: human, MRC-5 normal embryonic lung cells; concentration of 50 μg/mL
Description: For chlorine as a substituent, the activity followed the order of ortho > meta > para. […] For fluorine as a substituent, the activity also followed the order of ortho > meta ≈ para. […].

SMILES | cytotoxicity at 50 μg/mL [%]
COc1cc2cc(NC(=O)c3cc[n+](Cc4cccc(F)c4F)cc3)c(=O)oc2cc1OC.[Br-] [compound 9h] | 0
